Molecules are shown by their SMILES.

Data set [1] deals with HepG2 cells. The experiment in a line: Cell cycle analysis with flow cytometry. It counts as cell-based, human. The settings on record: HepG2, 24 h at IC50. Here is the method: Specimens were placed on cells and incubated for 24 h. The cells that were not subjected to any treatment were the control cells. After the set incubation duration, trypsin was applied to detach the cells. Subsequently, the cells were gathered in a 1.5-mL vial and rinsed with 500 μL of chilled PBS [39]. A suspension of approximately 10^6 cells was prepared by gently vortexing 100 μL of PBS, resulting in a monodispersed cell suspension with minimal aggregation. The cells were then fixed by adding this solution to centrifuge tubes containing 900 μL of 70 % ethanol on ice, followed by incubation at 4 °C for at least 2 h. Cells can be stored in 70 % ethanol at 4 °C for several weeks. According to Sun et al. after centrifugation post-fixation, the cell pellet was resuspended in 500 μL of Propidium Iodide (PI) staining solution (0.1 % (v/v) Triton X-100, 10 μg/mL PI, and 100 μg/mL DNase-free RNaseA in PBS). The mixture was incubated in the dark for 30 min at room temperature or 10 min at 37 °C. Finally, samples were analyzed using a flow cytometer.
(In general: In flow cytometry, cells or beads pass a laser one at a time.)

Data set [2] concerns HepG2 cells. The experiment in a line: ROS estimation with flow cytometry (DCFDA). It counts as cell-based, human. The settings on record: HepG2, 24 h, Control 1 %. Here is the method:
Cells were seeded into six-well plates at densities ranging from 5000 to 10,000 HepG2 cells per well, using 1 mL of DMEM media supplemented with 10 % FBS and 1 % antibiotic solution. The plates were then incubated at 37 °C with 5 % CO2 for 24 h. Prior to treatment, the old culture medium was replaced with fresh medium, designating untreated cells as controls. Following the protocol by Gupta et al. cells were treated with various agents and further incubated for 24 h. After incubation, the medium was removed, and cells were detached using trypsin-EDTA, transferred to 1.5 mL tubes, and washed with 500 μl of cold PBS. The cell pellet was resuspended in 100 μl of PBS containing 2 μM DCFDA, and samples were incubated for 1 h before analysis using a BD FACS Calibur flow cytometer (USA). Data were processed using version 2.5.1 of the Flowing software program.

Data set [3] has as its system HepG2 cells. The experiment in a line: Cellular uptake (fluorescence microscopy, flow cytometry). It is filed as cell-based, human. To be noted: HepG2, 50 and 100 μg/mL DAS, 1 and 4 h. Here is the method:
The cellular uptake of DAS polymeric micelles was evaluated by examining the uptake of DAS by HepG2, hepatocellular carcinoma, and murine melanoma cells after exposure to free DAS and DAS-PMs micelles. Cells were visualized under a fluorescence microscope, and the DAS fluorescence intensity in treated cells was measured using flow cytometry. Fluorescent micrographs depicted HepG2 cells that had been treated with free DAS and DAS-PMs for durations of 0, 1, and 4 h. […] This rise was in comparison to the control group. However, DAS-PMs may quickly accumulate in HepG2 cells, as indicated by the vivid green fluorescence—even just 1 h after. When cells were treated with DAS-PMs for 4 h, the fluorescence intensity increased much more than after 1 h. At the 1- and 4-h time points, the fluorescence intensity in cells treated with 100 μg/mL of DAS in DAS-PMs was considerably higher than that in cells treated with 50 μg/mL of DAS. The dose- and time-dependent rise in fluorescence intensity was quantitatively evaluated using flow cytometry on HepG2 cell lines, as illustrated in Fig. 12.

Data set [4] is described as follows: In vitro release of dasatinib (dialysis bag). It is filed as physicochemical. To be noted: 12 h, pH 7.4, 37 °C. Here is the method: To imitate the journey of polymeric micelles through the gastrointestinal tract, an in vitro drug release test was conducted. To simulate drug release from polymeric micelles, a release test was conducted using a phosphate buffer solution at pH 7.4 over 12 h, starting at the 0.5-h mark. The pH of human blood and most bodily tissues is roughly 7.4. Performing the release research at this pH allows us to forecast how dasatinib will behave once taken into the bloodstream and dispersed throughout the body. […] This information aids in evaluating how much of the drug can reach the systemic circulation for therapeutic activity. Each test was performed in a medium containing 0.5 % w/v Tween 20 to maintain sink conditions. A dialysis bag containing 1 mL of a freshly prepared dispersion of dasatinib-loaded micelles was sealed with clips and placed into a glass container filled with 90 mL of […]. This setup was incubated in a water bath set at 37 °C with agitation at 150 rotations per minute. At specified time intervals ([…]), 5 mL samples of the release medium were withdrawn and replaced with fresh medium to maintain volume consistency. The amount of drug released was measured by analyzing the UV absorbance of the samples at 323 nm. A standard curve for […] in each medium was used for the quantification. […]

A further data set is described as follows: In vivo pharmacokinetics. To be noted: male, Wistar; for Cmax / Tmax: rat plasma. The arrangement: species or system Male Wistar rats. Here is the method: Male Wistar rats, each weighing 200 ± 10 g, were obtained from the Experimental Animal Centre at NMIMS University. The study was conducted in accordance with the guidelines approved by the NMIMS University Animal Experimental Ethics Committee (protocol number SPTM/09/2023/IAEC/05). […] The total dose of DAS in two group was 5 mg/kg via intravenous. Blood samples (0.4 mL) were collected from the rats via intravenous injection at specified time intervals (0.5, 1, 2, 3, 4, 5, 6, 8, 10, and 12 h) and were immediately transferred into heparinized tubes. The samples were centrifuged at 12,000 rpm for 10 min to separate the plasma, which was then stored at −20 °C until analysis. The plasma samples were subsequently subjected to high-performance liquid chromatography (HPLC) to determine the concentration of dasatinib. The blood extraction process was conducted as follows: Initially, 15 μL of an internal standard solution (methanol, 10 μg/mL) was added to each tube containing 0.4 mL of blood, followed by vortexing for 1 min. Subsequently, 1 mL of acetonitrile was added, and the mixture was vortexed for an additional minute. The samples were then centrifuged at 12,000 rpm for 10 min. After centrifugation, the organic layer was carefully transferred to a sterile tube and evaporated under a gentle nitrogen stream. The dried extracts were reconstituted in 0.4 mL of a methanol/water solution (70/30, v/v) before undergoing high-performance liquid chromatography (HPLC) analysis. The pharmacokinetic parameters were calculated using the DAS 2.1.1 software (Shanghai, China).

The next data set concerns HepG2 cell lines. The experiment in a line: Cellular apoptosis with flow cytometry (Annexin V-FITC/PI). To be noted: HepG2, IC50 dose. It counts as cell-based, human. Here is the method:
HepG2 cell lines, obtained from NCCS Pune, were cultured and treated with the compound's IC-50 dosage. Post-treatment, the cells were divided into five groups: unstained cells, control group, annexin-only, PI-only, and treatment. The cells were then resuspended in 1X binding buffer at a concentration of 1 × 10^6 cells/mL. FITC and PI from Annexin V were added to the appropriately labeled tubes. According to Zhan et al., 1X binding buffer was added to each tube, and they were incubated for 15 min at room temperature. The samples were analyzed using a BD FACS Lyric™ flow cytometer within an hour.

Data set [5] is described as follows: MTT/SRB cytotoxicity assay. It counts as cell-based. The settings on record: human, HepG2 cells; HepG2, after 48 h. Here is the method: The MTT assay was performed to assess the cytotoxicity of the samples on the HepG2 cell line. Approximately 8000 cells per well were cultured in a 96-well plate for 24 h at 37 °C with 5 % CO2 in DMEM medium supplemented with 10 % FBS and 1 % antibiotic solution. The following day, cells were exposed to various dosages and concentrations ranging from 1 to 2500 μM, prepared using incomplete medium to achieve the desired concentrations. After a 24-h incubation period, 100 μL of 10 % trichloroacetic acid (TCA) was added to each well and incubated for 1 h. Then, the plate was washed with distilled water and allowed to dry at room temperature. MTT solution was added to each well at a final concentration of 0.04 % and was allowed to sit for 1 h. After an hour of incubation, the plate was air-dried at room temperature before being cleaned with 1 % (v/v) acetic acid to remove any remaining color. To solubilize the protein-bound dye, Tris base solution (pH = 10.5) was added to a well and shaken for 10 min on an orbital shaker. The protein-bound dye was then detected at 510 nm using an ELISA plate reader (iMark, Biorad, USA).
The cytotoxicity of the samples was evaluated using the HepG2 cell line, obtained from NCCS Pune, through the MTT assay. […] The results were measured at 540 nm and 660 nm using a Bio-Rad ELISA plate reader (USA). The IC50 value was calculated using GraphPad Prism 9 software. […]
For orientation: In SRB staining, fixed cells bind dye roughly in proportion to their protein.

Another data set has as its system HepG2 liver cell lines. Briefly: In-vitro scratch assay. It counts as cell-based, human. To be noted: HepG2, after 48 h of treatment. An excerpt:
The aim of the in-vitro scratch test is to assess how effectively cancer cell growth is curbed.

[6] abbreviates: plasma, rat, 5 mg/kg via intravenous.

On to `Cc1nc(Nc2ncc(C(=O)Nc3c(C)cccc3Cl)s2)cc(N2CCN(CCO)CC2)n1` [DAS, dasatinib], for which the “percentage of cells in G2 phase” value in the data set with HepG2 cells [1] (control 18.14 %) stood at 11.94%. In addition, in the data set with HepG2 cells [1] (control 20.04 %), the “percentage of cells in S phase” value is 14.22%. In addition, the “percentage of cells in G1 phase” value in the data set with HepG2 cells [1] (control 58.18 %) stood at 67.14%. In the data set on HepG2 cells [2], the “ROS, MFI-positive cells” value is 3.09%. Further, the “fluorescence intensity (cellular uptake)” value with HepG2 cells [3] was “slight rise in fluorescence intensity”. Also, the drug released in data set [4] was 40%. For the same compound, in the data set “In vivo pharmacokinetics” (intravenous, 5 mg/kg), the peak level (Cmax) was 12330 ± 60 ng/mL and the Tmax (as a rule, the time from dosing to the highest level) is 2 h. Besides, in “In vivo pharmacokinetics” (setting [6]), the MRT (usually a mean duration of stay, worked out from the concentration-time curve) is 3.3 h and the half-life (usually how long it takes for the measured level to halve) was 4.08 ± 0.786 h. For the same compound, in the data set “In vivo pharmacokinetics” (5 mg/kg via intravenous), the Cmax (usually the peak of the concentration-time curve) stood at 12300 ± 2310 ng/mL and the Tmax was 2 h. In addition, the early apoptotic cells in the data set on HepG2 cell lines (control 3.38 %) is 0.6%. In the data set with HepG2 cell lines (control 13.28 %), this compound showed a necrotic cells of 18.1%. The late apoptotic cells with HepG2 cell lines (control 19.56 %) is given as 72.4%. Besides, the viability – broadly, a read-out of living cells in per cent, often relative to untreated cells – at 48 h in data set [5] stood at 12.2 ± 0.63%. Moreover, the “cell migration (scratch wound)” value with HepG2 liver cell lines was “curbed cell migration”.

The record behind these values is paper PMC11570312, “Development, optimization, and characterization of polymeric micelles to improve dasatinib oral bioavailability: Hep G2 cell cytotoxicity and in vivo pharmacokinetics for targeted liver cancer therapy” (Heliyon, 2024).
